# Experiments:
# Experiment in all cases: cells
# TE-1 = assay type: functional, cell-based, Homo sapiens; details: Homo sapiens, TE-1;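 note: growth inhibition of the human TE-1 cell line, read out with a cell viability assay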
# Description: SANGER: Inhibition of human TE-1 cell growth in a cell viability assay.
# COLO-668 = assay type: functional, cell-based, Homo sapiens; details: Homo sapiens, COLO-668
# Description: SANGER: Inhibition of human COLO-668 cell growth in a cell viability assay.
# SW780 = assay type: functional, cell-based, Homo sapiens; details: Homo sapiens, SW780;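 note: growth inhibition of the cells, read out with a cell viability assay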
# Description: SANGER: Inhibition of human SW780 cell growth in a cell viability assay.
# COLO-792 = assay type: functional, cell-based, Homo sapiens; details: Homo sapiens, COLO-792
# Description: SANGER: Inhibition of human COLO-792 cell growth in a cell viability assay.
# HuO-3N1 = assay type: functional, cell-based, Homo sapiens; details: Homo sapiens, HuO-3N1;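 note: cell viability readout used to measure how strongly compounds suppress proliferation of human HuO-3N1 cells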
# Description: SANGER: Inhibition of human HuO-3N1 cell growth in a cell viability assay.
# LB2241-RCC = assay type: functional, cell-based, Homo sapiens; details: Homo sapiens, LB2241-RCC;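 note: cell viability assay measuring how strongly the cultured human renal carcinoma line is prevented from growing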
# Description: SANGER: Inhibition of human LB2241-RCC cell growth in a cell viability assay.
# PC-3 = assay type: functional, cell-based, Homo sapiens; details: Homo sapiens, PC-3;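 note: cell viability assay measuring growth inhibition of PC-3 cells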
# Description: SANGER: Inhibition of human PC-3 cell growth in a cell viability assay.
# MG-63 = assay type: functional, cell-based, Homo sapiens; details: Homo sapiens, MG-63;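 note: growth inhibition of human MG-63 cells, read out with a cell viability assay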
# Description: SANGER: Inhibition of human MG-63 cell growth in a cell viability assay.
# A4-Fuk = assay type: functional, cell-based; details: Homo sapiens;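 note: growth inhibition of A4-Fuk cells, read out by a cell viability assay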
# Description: SANGER: Inhibition of human A4-Fuk cell growth in a cell viability assay.
# HMV-2 cell line = assay type: functional, cell-based, Homo sapiens; details: Homo sapiens, HMV-2;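 note: growth inhibition of HMV-II cells, read out with a cell viability assay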
# Description: SANGER: Inhibition of human HMV-II cell growth in a cell viability assay.
# LXF-289 cell line = assay type: functional, cell-based, Homo sapiens; details: Homo sapiens, LXF-289
# Description: SANGER: Inhibition of human LXF-289 cell growth in a cell viability assay.
# 697 = assay type: functional, cell-based; details: Homo sapiens
# Description: SANGER: Inhibition of human 697 cell growth in a cell viability assay.
# DEL = assay type: functional, cell-based; details: Homo sapiens;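 note: growth inhibition of the human DEL cell line, read out with a cell viability assay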
# Description: SANGER: Inhibition of human DEL cell growth in a cell viability assay.
# K562 = assay type: functional, cell-based; details: Homo sapiens
# Description: SANGER: Inhibition of human K-562 cell growth in a cell viability assay.
# A2058 = assay type: functional, cell-based; details: Homo sapiens;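 note: reduction of A2058 cell growth, read out with a viability assay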
# Description: SANGER: Inhibition of human A2058 cell growth in a cell viability assay.
# NCI-H28 = assay type: functional, cell-based, Homo sapiens; details: Homo sapiens, NCI-H28;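 note: growth inhibition of human NCI-H28 cells, read out as cell viability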
# Description: SANGER: Inhibition of human NCI-H28 cell growth in a cell viability assay.
# EW-11 = assay type: functional, cell-based, Homo sapiens; details: Homo sapiens, EW-11;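 note: growth inhibition of human EW-11 cells, measured with a cell viability assay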
# Description: SANGER: Inhibition of human EW-11 cell growth in a cell viability assay.
# 647-V = assay type: functional, cell-based, Homo sapiens; details: Homo sapiens, 647-V;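 note: growth inhibition of 647-V cells, read out with a cell viability assay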
# Description: SANGER: Inhibition of human 647-V cell growth in a cell viability assay.
# SCC-9 = assay type: functional, cell-based, Homo sapiens; details: Homo sapiens, SCC-9;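 note: Read-out is a cell viability assay, with values giving inhibition of cell growth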
# Description: SANGER: Inhibition of human SCC-9 cell growth in a cell viability assay.
# SNU-C2B = assay type: functional, cell-based, Homo sapiens; details: Homo sapiens, SNU-C2B;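 note: cell viability readout used to measure compound-driven suppression of SNU-C2B cell proliferation, IC50 marking half-maximal growth inhibition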
# Description: SANGER: Inhibition of human SNU-C2B cell growth in a cell viability assay.
# LOX IMVI = assay type: functional, cell-based; details: Homo sapiens
# Description: SANGER: Inhibition of human LOXIMVI cell growth in a cell viability assay.
# NCI-H1155 = assay type: functional, cell-based; details: Homo sapiens;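 note: cell growth inhibition measured by a viability assay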
# Description: SANGER: Inhibition of human NCI-H1155 cell growth in a cell viability assay.
# HCC1937 = assay type: functional, cell-based, Homo sapiens; details: Homo sapiens, HCC1937;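 note: growth inhibition measured with a cell viability read-out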
# Description: SANGER: Inhibition of human HCC1937 cell growth in a cell viability assay.
# SW48 = assay type: functional, cell-based, Homo sapiens; details: Homo sapiens, SW48;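 note: growth inhibition of SW48 cells, read out with a cell viability assay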
# Description: SANGER: Inhibition of human SW48 cell growth in a cell viability assay.
# UACC-62 = assay type: functional, cell-based, Homo sapiens; details: Homo sapiens, UACC-62;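 note: growth inhibition of human UACC-62 cells, read out by a cell viability assay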
# Description: SANGER: Inhibition of human UACC-62 cell growth in a cell viability assay.
# CAL-27 = assay type: functional, cell-based, Homo sapiens; details: Homo sapiens, CAL-27;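 note: Viability-based readout, IC50 reflecting inhibition of CAL-27 cell growth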
# Description: SANGER: Inhibition of human CAL-27 cell growth in a cell viability assay.
# SW1463 = assay type: functional, cell-based, Homo sapiens; details: Homo sapiens, SW1463;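 note: growth inhibition of SW1463 cells, determined with a cell viability assay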
# Description: SANGER: Inhibition of human SW1463 cell growth in a cell viability assay.
# COLO-678 = assay type: functional, cell-based, Homo sapiens; details: Homo sapiens, COLO-678
# Description: SANGER: Inhibition of human COLO-678 cell growth in a cell viability assay.
# Hs-578T = assay type: functional, cell-based, Homo sapiens; details: Homo sapiens, Hs-578T
# Description: SANGER: Inhibition of human Hs-578-T cell growth in a cell viability assay.
# KARPAS-299 = assay type: functional, cell-based; details: Homo sapiens
# Description: SANGER: Inhibition of human KARPAS-299 cell growth in a cell viability assay.
# COR-L23 = assay type: functional, cell-based, Homo sapiens; details: Homo sapiens, COR-L23;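 note: cell viability assay measuring how strongly compounds suppress growth of COR-L23 cells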
# Description: SANGER: Inhibition of human COR-L23 cell growth in a cell viability assay.
# NCI-H1355 = assay type: functional, cell-based, Homo sapiens; details: Homo sapiens, NCI-H1355;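 note: growth inhibition of human NCI-H1355 cells, read out by a cell viability assay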
# Description: SANGER: Inhibition of human NCI-H1355 cell growth in a cell viability assay.
# MMAC-SF = assay type: functional, cell-based, Homo sapiens; details: Homo sapiens, MMAC-SF;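 note: growth inhibition of human MMAC-SF cells, read out with a cell viability assay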
# Description: SANGER: Inhibition of human MMAC-SF cell growth in a cell viability assay.
# OCUB-M = assay type: functional, cell-based, Homo sapiens; details: Homo sapiens, OCUB-M;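 note: growth inhibition of the cancer cell line, read out through a cell viability assay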
# Description: SANGER: Inhibition of human OCUB-M cell growth in a cell viability assay.
# Calu-6 = assay type: functional, cell-based, Homo sapiens; details: Homo sapiens, Calu-6;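 note: growth of human Calu-6 cells, read out by a cell viability assay, IC50 marking inhibition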
# Description: SANGER: Inhibition of human Calu-6 cell growth in a cell viability assay.
# OE19 = assay type: functional, cell-based, Homo sapiens; details: Homo sapiens, OE19;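 note: growth inhibition of OE19 cells, measured through a cell viability read-out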
# Description: SANGER: Inhibition of human OE19 cell growth in a cell viability assay.
# HD-MY-Z = assay type: functional, cell-based, Homo sapiens; details: Homo sapiens, HD-MY-Z;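 note: growth inhibition of HD-MY-Z cells, read out with a cell viability assay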
# Description: SANGER: Inhibition of human HD-MY-Z cell growth in a cell viability assay.
# NCI-H1650 = assay type: functional, cell-based, Homo sapiens; details: Homo sapiens, NCI-H1650;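 note: growth inhibition of human NCI-H1650 cells measured by a cell viability assay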
# Description: SANGER: Inhibition of human NCI-H1650 cell growth in a cell viability assay.
# OVCAR-5 = assay type: functional, cell-based, Homo sapiens; details: Homo sapiens, OVCAR-5;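 note: growth inhibition of human OVCAR-5 cells, read out with a cell viability assay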
# Description: SANGER: Inhibition of human OVCAR-5 cell growth in a cell viability assay.
# MCF7 = assay type: functional, cell-based, Homo sapiens; details: Homo sapiens, MCF7;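 note: growth inhibition of human MCF7 cells, read out with a cell viability assay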
# Description: SANGER: Inhibition of human MCF7 cell growth in a cell viability assay.
# BHY = assay type: functional, cell-based, Homo sapiens; details: Homo sapiens, BHY;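 note: cell growth inhibition read out by a viability assay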
# Description: SANGER: Inhibition of human BHY cell growth in a cell viability assay.
# RXF 393 = assay type: functional, cell-based; details: Homo sapiens;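 note: growth inhibition of human RXF 393 cells, read out with a cell viability assay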
# Description: SANGER: Inhibition of human RXF393 cell growth in a cell viability assay.
# ML-2 = assay type: functional, cell-based; details: Homo sapiens;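 note: growth inhibition of ML-2 cells, measured with a cell viability readout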
# Description: SANGER: Inhibition of human ML-2 cell growth in a cell viability assay.
# LU-99A = assay type: functional, cell-based, Homo sapiens; details: Homo sapiens, LU-99A;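 note: growth inhibition of LU-99A cells, read out with a cell viability assay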
# Description: SANGER: Inhibition of human LU-99A cell growth in a cell viability assay.
# PC-14 = assay type: functional, cell-based, Homo sapiens; details: Homo sapiens, PC-14;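 note: cell viability assay measuring inhibition of PC-14 cell growth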
# Description: SANGER: Inhibition of human PC-14 cell growth in a cell viability assay.
# DMS-79 = assay type: functional, cell-based; details: Homo sapiens;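 note: growth inhibition measured with a cell viability assay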
# Description: SANGER: Inhibition of human DMS-79 cell growth in a cell viability assay.
# HEL = assay type: functional, cell-based, Homo sapiens; details: Homo sapiens, HEL;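 note: growth inhibition of HEL cells, read out with a cell viability assay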
# Description: SANGER: Inhibition of human HEL cell growth in a cell viability assay.
# RD = assay type: functional, cell-based, Homo sapiens; details: Homo sapiens, RD
# Description: SANGER: Inhibition of human RD cell growth in a cell viability assay.
# ES6 = assay type: functional, cell-based, Homo sapiens; details: Homo sapiens, ES6;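 note: growth inhibition of human ES6 cells, read out with a cell viability assay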
# Description: SANGER: Inhibition of human ES6 cell growth in a cell viability assay.
# Becker = assay type: functional, cell-based, Homo sapiens; details: Homo sapiens, Becker;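 note: growth inhibition of Becker cells, read out with a cell viability assay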
# Description: SANGER: Inhibition of human Becker cell growth in a cell viability assay.
# S-117 = assay type: functional, cell-based, Homo sapiens; details: Homo sapiens, S-117
# Description: SANGER: Inhibition of human S-117 cell growth in a cell viability assay.
# KP-N-YS = assay type: functional, cell-based; details: Homo sapiens;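 note: cell viability assay measuring inhibition of cell line growth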
# Description: SANGER: Inhibition of human KP-N-YS cell growth in a cell viability assay.
compound,measurement,setting,value
CC(=O)O[C@@]12CO[C@@H]1C[C@H](O)[C@@]1(C)C(=O)[C@H](O)C3=C(C)[C@@H](OC(=O)[C@H](O)[C@@H](NC(=O)OC(C)(C)C)c4ccccc4)C[C@@](O)([C@@H](OC(=O)c4ccccc4)[C@H]21)C3(C)C [DOCETAXEL],IC50,TE-1,2.16 nM
same,IC50,COLO-668,> 10 nM
same,IC50,SW780,0.587 nM
same,IC50,COLO-792,> 10 nM
same,IC50,HuO-3N1,0.302 nM
same,IC50,LB2241-RCC,5.31 nM
same,IC50,PC-3,> 10 nM
same,IC50,MG-63,1.51 nM
same,IC50,A4-Fuk,3.9 nM
same,IC50,HMV-2 cell line,> 10 nM
same,IC50,LXF-289 cell line,0.758 nM
same,IC50,697,1.72 nM
same,IC50,DEL,3.01 nM
same,IC50,K562,> 10 nM
same,IC50,A2058,0.544 nM
same,IC50,NCI-H28,3.34 nM
same,IC50,EW-11,1.69 nM
same,IC50,647-V,1.84 nM
same,IC50,SCC-9,1.32 nM
same,IC50,SNU-C2B,> 10 nM
same,IC50,LOX IMVI,1.16 nM
same,IC50,NCI-H1155,> 10 nM
same,IC50,HCC1937,> 10 nM
same,IC50,SW48,1.01 nM
same,IC50,UACC-62,3.3 nM
same,IC50,CAL-27,0.339 nM
same,IC50,SW1463,> 10 nM
same,IC50,COLO-678,> 10 nM
same,IC50,Hs-578T,2.72 nM
same,IC50,KARPAS-299,> 10 nM
same,IC50,COR-L23,2.2 nM
same,IC50,NCI-H1355,6.79 nM
same,IC50,MMAC-SF,5.86 nM
same,IC50,OCUB-M,4.38 nM
same,IC50,Calu-6,4.47 nM
same,IC50,OE19,5.59 nM
same,IC50,HD-MY-Z,1.41 nM
same,IC50,NCI-H1650,> 10 nM
same,IC50,OVCAR-5,1.99 nM
same,IC50,MCF7,1.61 nM
same,IC50,BHY,2.16 nM
same,IC50,RXF 393,2.22 nM
same,IC50,ML-2,> 10 nM
same,IC50,LU-99A,> 10 nM
same,IC50,PC-14,2.09 nM
same,IC50,DMS-79,> 10 nM
same,IC50,HEL,> 10 nM
same,IC50,RD,4 nM
same,IC50,ES6,> 10 nM
same,IC50,Becker,1.83 nM
same,IC50,S-117,4.86 nM
same,IC50,KP-N-YS,> 10 nM

# — ChEMBL document CHEMBL1201861, “Genomics of Drug Sensitity in Cancer screening data, Wellcome Trust Sanger Institute”
